From ChEMBL document CHEMBL1201862, “PubChem BioAssay data set” (2004) come the findings set out here.

A word on the IC50: it is the concentration that inhibits the measured activity by half.

Assay type in all cases: functional
The target in assay [1] is T1, Sentrin-specific protease 6 (Homo sapiens, UniProt Q9GZR1).
T1 sequence (Q9GZR1 whole entry): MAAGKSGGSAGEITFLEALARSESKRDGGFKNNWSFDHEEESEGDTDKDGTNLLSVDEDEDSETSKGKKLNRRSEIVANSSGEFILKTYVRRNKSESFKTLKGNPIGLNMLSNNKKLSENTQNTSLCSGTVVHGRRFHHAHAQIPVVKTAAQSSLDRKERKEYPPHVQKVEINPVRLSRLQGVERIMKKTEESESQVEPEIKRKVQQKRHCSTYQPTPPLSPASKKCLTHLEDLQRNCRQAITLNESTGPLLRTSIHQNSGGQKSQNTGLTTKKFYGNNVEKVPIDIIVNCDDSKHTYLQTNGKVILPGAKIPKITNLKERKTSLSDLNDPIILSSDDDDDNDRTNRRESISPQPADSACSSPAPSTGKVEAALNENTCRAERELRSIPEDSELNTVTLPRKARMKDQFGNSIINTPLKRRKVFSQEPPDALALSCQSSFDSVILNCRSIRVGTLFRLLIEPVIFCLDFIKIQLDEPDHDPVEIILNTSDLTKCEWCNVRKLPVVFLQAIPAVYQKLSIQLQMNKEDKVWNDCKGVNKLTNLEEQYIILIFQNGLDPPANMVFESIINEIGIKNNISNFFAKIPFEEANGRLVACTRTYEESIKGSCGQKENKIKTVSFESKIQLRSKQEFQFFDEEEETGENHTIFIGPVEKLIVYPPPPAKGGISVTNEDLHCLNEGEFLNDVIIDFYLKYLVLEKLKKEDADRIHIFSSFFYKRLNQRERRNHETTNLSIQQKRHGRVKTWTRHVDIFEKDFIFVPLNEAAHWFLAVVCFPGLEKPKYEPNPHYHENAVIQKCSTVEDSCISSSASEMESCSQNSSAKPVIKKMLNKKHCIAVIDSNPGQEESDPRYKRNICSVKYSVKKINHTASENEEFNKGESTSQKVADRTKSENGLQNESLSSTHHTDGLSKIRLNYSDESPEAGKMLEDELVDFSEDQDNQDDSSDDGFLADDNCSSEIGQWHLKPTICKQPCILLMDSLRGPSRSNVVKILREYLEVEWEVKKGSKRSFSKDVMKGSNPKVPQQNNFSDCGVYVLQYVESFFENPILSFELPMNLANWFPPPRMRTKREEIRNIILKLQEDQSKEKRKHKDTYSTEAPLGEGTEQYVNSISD
Description: SAR Analysis of small molecule inhibitors of Sentrin-specific protease 6 (SENP6) using a Luminescent assay. [Related pubchem assays (depositor defined):AID2582, AID2599].

The target in assay [2] is T2, Sentrin-specific protease 7 (Homo sapiens, UniProt Q9BQF6).
T2 sequence (Q9BQF6 whole entry): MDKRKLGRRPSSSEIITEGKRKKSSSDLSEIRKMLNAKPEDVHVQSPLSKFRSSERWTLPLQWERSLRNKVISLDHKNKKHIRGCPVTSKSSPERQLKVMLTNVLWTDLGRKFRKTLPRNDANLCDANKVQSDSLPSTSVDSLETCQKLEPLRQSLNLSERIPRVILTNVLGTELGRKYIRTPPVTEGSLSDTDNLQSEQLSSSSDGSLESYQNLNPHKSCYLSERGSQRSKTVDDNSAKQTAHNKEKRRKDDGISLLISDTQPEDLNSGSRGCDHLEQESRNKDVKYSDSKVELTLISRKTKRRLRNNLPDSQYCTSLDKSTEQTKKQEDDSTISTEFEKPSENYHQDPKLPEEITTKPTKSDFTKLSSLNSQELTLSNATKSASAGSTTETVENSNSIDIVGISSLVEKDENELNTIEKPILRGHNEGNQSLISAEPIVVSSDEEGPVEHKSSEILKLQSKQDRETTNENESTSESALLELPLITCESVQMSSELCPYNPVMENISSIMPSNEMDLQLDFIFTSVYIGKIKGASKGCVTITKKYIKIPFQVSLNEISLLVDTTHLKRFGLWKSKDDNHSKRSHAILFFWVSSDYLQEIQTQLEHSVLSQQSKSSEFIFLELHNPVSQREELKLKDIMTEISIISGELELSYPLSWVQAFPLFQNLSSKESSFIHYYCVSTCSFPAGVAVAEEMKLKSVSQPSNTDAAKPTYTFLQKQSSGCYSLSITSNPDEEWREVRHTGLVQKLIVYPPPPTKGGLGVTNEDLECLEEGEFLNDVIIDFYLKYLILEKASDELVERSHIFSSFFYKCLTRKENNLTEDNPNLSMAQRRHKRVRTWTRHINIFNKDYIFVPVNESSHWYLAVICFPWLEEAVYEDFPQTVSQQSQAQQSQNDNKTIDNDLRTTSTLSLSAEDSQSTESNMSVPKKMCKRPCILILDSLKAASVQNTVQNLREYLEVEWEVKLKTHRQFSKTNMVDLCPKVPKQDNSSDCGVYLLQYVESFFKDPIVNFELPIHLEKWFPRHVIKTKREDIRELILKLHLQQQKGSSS
Put plainly: inhibition of human SENP7 cleavage activity – biochemical, luminescence, SAR follow-up (AID 504497).

In assay [3] the target is T3, Sentrin-specific protease 8 (Homo sapiens, UniProt Q96LD8).
T3 sequence (Q96LD8 whole entry): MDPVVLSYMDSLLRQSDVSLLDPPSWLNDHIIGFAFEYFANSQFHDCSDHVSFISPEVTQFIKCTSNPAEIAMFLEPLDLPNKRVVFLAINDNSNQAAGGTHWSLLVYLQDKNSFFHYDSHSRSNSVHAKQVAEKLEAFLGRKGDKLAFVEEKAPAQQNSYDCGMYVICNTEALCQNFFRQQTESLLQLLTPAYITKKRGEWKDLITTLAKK
Description: inhibition of human SENP8 cleavage activity – biochemical, luminescence, SAR follow-up (AID 504501).

The target of another assay is T4, Protein skinhead-1 (Caenorhabditis elegans, UniProt P34707).
T4 sequence (P34707 whole entry): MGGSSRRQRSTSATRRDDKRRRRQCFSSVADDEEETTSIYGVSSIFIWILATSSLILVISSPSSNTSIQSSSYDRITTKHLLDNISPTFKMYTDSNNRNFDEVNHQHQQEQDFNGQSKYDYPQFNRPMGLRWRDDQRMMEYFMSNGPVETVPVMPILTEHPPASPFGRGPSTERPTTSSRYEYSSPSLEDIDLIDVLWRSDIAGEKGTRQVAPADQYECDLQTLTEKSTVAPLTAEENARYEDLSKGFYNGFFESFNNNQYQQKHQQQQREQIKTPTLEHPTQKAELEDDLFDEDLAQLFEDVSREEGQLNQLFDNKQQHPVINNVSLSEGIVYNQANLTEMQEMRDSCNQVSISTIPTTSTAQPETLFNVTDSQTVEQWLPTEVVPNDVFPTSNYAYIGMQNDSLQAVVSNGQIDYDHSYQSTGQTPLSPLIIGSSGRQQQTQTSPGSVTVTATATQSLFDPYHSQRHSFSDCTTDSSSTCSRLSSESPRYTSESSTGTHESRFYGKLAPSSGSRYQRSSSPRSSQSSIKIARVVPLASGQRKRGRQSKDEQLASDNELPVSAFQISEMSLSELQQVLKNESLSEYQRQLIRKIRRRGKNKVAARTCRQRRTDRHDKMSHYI

The target of the next assay is T5, Caspase-3 (Homo sapiens, UniProt P42574).
T5 sequence (P42574 whole entry): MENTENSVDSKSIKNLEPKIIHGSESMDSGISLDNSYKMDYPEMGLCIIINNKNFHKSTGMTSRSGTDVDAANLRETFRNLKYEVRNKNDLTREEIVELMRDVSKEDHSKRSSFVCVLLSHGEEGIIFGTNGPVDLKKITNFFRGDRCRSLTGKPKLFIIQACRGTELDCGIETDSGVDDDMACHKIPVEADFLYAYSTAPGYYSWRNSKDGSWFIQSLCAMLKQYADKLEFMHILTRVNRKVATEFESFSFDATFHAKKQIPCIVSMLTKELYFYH
Description: SAR Analysis of small molecule inhibitors of Sentrin-specific proteases (SENPs) using a Caspase-3 Selectivity assay. [Related pubchem assays (depositor defined):AID2540, AID2599, AID434973, AID489001].

Assay [4] can be described thus: Counterscreen for antagonists of the orexin 1 receptor (OX1R; HCRTR1): Fluorescence-based cell-based high throughput dose response assay to identify antagonists of the parental CHO cell line. [Related pubchem assays (depositor defined):AID434989, AID435008, AID463079, AID485270, AID492963, AID492964, AID492965, AID493232, AID504699, AID504701]. On the technique in general: A counterscreen serves to expose hits that act by an unwanted route or on another target.

For the next assay, the system named is CHO-K1. Description: Counterscreen for antagonists of the orexin 1 receptor (OX1R; HCRTR1): Homogeneous time resolved fluorescence (HTRF)-based cell-based dose response assay to identify antagonists of the parental CHO-K1 cell line. [Related pubchem assays (depositor defined):AID434989, AID435008, AID463079, AID485270, AID492963, AID492964, AID492965, AID493232, AID504699, AID504701]. As to conditions: Cricetulus griseus.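 Further: potency for inhibition of ATP-stimulated IP1 production as antagonists.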

The target in assay [5] is T6, Orexin receptor type 2 (Homo sapiens, UniProt O43614).
T6 sequence (O43614 whole entry): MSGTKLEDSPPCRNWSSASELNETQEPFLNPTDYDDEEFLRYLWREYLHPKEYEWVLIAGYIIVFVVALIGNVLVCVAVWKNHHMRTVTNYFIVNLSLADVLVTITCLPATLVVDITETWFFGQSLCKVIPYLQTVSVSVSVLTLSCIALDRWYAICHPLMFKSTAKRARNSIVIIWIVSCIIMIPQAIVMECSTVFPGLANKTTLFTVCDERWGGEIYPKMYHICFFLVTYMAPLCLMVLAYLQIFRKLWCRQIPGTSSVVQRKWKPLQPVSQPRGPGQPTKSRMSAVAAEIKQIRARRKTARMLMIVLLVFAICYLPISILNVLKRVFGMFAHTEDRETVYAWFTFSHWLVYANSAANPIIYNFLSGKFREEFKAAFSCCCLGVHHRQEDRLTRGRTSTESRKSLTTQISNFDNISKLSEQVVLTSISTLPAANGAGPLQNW
Description: Counterscreen assay for antagonists of the orexin 1 receptor (OX1R; HCRTR1): Fluorescence-based cell-based dose response assay for antagonists of the orexin 2 receptor (OX2R; HCRTR2), run by assay provider.

Assay [6] has as its target T7, Orexin/Hypocretin receptor type 1 (Homo sapiens, UniProt O43613).
T7 sequence (O43613 whole entry): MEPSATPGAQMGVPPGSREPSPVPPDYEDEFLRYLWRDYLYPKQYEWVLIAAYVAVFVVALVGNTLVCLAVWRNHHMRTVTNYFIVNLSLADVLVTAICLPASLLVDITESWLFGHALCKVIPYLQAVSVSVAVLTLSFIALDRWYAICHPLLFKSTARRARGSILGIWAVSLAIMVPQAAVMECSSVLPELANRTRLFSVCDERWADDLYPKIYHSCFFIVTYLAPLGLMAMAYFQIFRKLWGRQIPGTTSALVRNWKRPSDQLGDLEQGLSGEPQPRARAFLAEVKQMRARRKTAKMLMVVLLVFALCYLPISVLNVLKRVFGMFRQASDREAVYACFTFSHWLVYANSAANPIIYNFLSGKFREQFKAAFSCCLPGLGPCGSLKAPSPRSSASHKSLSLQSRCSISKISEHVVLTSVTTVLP
Description: Fluorescence-based cell-based high throughput dose response assay for antagonists of the orexin 1 receptor (OX1R; HCRTR1). [Related pubchem assays (depositor defined):AID434989, AID435008, AID463079, AID485270, AID492963, AID492964, AID492965, AID493232, AID504717, AID504718].

The target of assay [7] is T7, Orexin/Hypocretin receptor type 1. Put plainly: Homogeneous Time Resolved Fluorescence (HTRF)-based cell-based high throughput dose response assay for antagonists of the orexin 1 receptor (OX1R; HCRTR1). [Related pubchem assays (depositor defined):AID434989, AID435008, AID463079, AID485270, AID492963, AID492964, AID492965, AID493232, AID504717, AID504718]. For orientation: TR-FRET usually uses a lanthanide donor and a delayed reading to cut background.

The target of assay [8] is T6, Orexin receptor type 2. Put plainly: Counterscreen assay for antagonists of the orexin 1 receptor (OX1R; HCRTR1): Homogeneous Time Resolved Fluorescence (HTRF)-based cell-based dose response assay for antagonists of the orexin 2 receptor (OX2R; HCRTR2), run by assay provider.

Structures are written as SMILES. Activity calls are given as the source filed them. Bounds are passed on as bounds.

For the molecule `Fc1ccc(/C=C/c2nnc(-c3cccs3)o2)cc1`, the IC50 was 39 µM (active) in assay [1]; 4.3 µM (active) in [2]; 47 µM (active) in assay [3]; > 100 µM (inactive) at Protein skinhead-1; 6.4 µM (active) on Caspase-3.

In the case of `COc1ccc(NC(=O)C(=O)Nc2cccc3cccnc23)cc1OC`, the IC50 in assay [4] was > 49.8 µM (inactive); in the assay with CHO-K1, > 66.2 µM (inactive); on Orexin receptor type 2 [5] it was > 88.8 µM (inactive); in assay [6] it was 1.34 µM (active); in assay [7] it was 0.475 µM (active); at Orexin receptor type 2 [8], > 50 µM (inactive).

As to `C/C(=C\c1ccccc1)c1nc(-c2cccc(C(F)(F)F)c2)no1`, the IC50 (in assay [1]; in [2]; in [3]; on Caspase-3) was > 99 µM (inactive) each time.

As to `O=C(Nc1nc2c(Br)cccc2s1)c1ccc2c(c1)OCCO2`, the IC50 in assay [1] is 4.5 µM (active); in assay [2], 2.6 µM (active); in [3] it was 5.3 µM (active); on Caspase-3 it was 13 µM (active).
